Data from patent US20200216441A1, “PESTICIDALLY ACTIVE HETEROCYCLIC DERIVATIVES WITH SULFUR CONTAINING SUBSTITUENTS” (SYNGENTA PARTICIPATIONS AG, priority 2017, published 2020).

Experiments:
[1] = system: Euschistus heros (Neotropical Brown Stink Bug); assay: whole plant or invertebrate; type: in vivo; settings: 120 h, application rate of 200 ppm, N2 nymphs on sprayed soybean leaves, 5 days after infestation, read-out: effect in at least one of the two categories (mortality or growth inhibition)
[2] = system: Myzus persicae (Green Peach Aphid); assay: whole plant or invertebrate; type: in vivo; settings: 144 h, test rate of 24 ppm, systemic, roots of infested pea seedlings in test solution, 6 days
[3] = system: Plutella xylostella (Diamond Back Moth); assay: whole plant or invertebrate; type: in vivo; settings: 120 h, application rate of 200 ppm, L2 larvae on treated artificial diet, 5 days after infestation, read-out: effect in at least one of the two categories (mortality or growth inhibition)
[4] = system: Myzus persicae (Green Peach Aphid); assay: whole plant or invertebrate; settings: foliar, 144 h
[5] = system: Spodoptera littoralis (Egyptian Cotton Leaf Worm); assay: whole plant or invertebrate; settings: in Gossypium barbadense, foliar, 72 h, read-out: control (mortality, anti-feeding effect, growth inhibition)
[6] = system: Diabrotica Balteata (Corn Root Worm); assay: Diabrotica balteata (Corn Root Worm); settings: in Zea mays, 96 h, read-out: effect in at least one of the two categories (mortality or growth inhibition)
[7] = system: Bemisia tabaci (Cotton White Fly); settings: in Gossypium hirsutum, foliar, 144 h

CCS(=O)(=O)c1cc(OCC(F)F)ccc1-c1nc2cc(C(F)(F)F)ncc2n1C [Compound P107, 2-[4-(2,2-difluoroethoxy)-2-ethylsulfonyl-phenyl]-3-methyl-6-(trifluoromethyl)imidazo[4,5-c]pyridine]
≥ 80%: percent effect (mortality or growth inhibition) at 200 ppm [1] | mortality at 24 ppm [2] | percent effect (mortality or growth inhibition) at 200 ppm [3] | mortality at 200 ppm [4] | mortality at 200 ppm [5] | mortality at 200 ppm [6]

CCS(=O)(=O)c1cc(OC(C)C#N)cnc1-c1nc2cc(C(F)(F)F)ncc2n1C (stereo not shown) [Compound P22, 2-[[5-ethylsulfonyl-6-[3-methyl-6-(trifluoromethyl)imidazo[4,5-c]pyridin-2-yl]-3-pyridyl]oxy]propanenitrile]
≥ 80%: percent effect (mortality or growth inhibition) at 200 ppm [1] | mortality at 24 ppm [2] | percent effect (mortality or growth inhibition) at 200 ppm [3] | mortality at 200 ppm [4] | mortality at 200 ppm [5] | mortality at 200 ppm [6]

CCS(=O)(=O)c1cc(OC[Si](C)(C)C)cnc1-c1nc2cc(C(F)(F)F)ncc2n1C [Compound P61, [5-ethylsulfonyl-6-[3-methyl-6-(trifluoromethyl)imidazo[4,5-c]pyridin-2-yl]-3-pyridyl]oxymethyl-trimethyl-silane]
≥ 80%: mortality at 200 ppm [4] | mortality at 200 ppm [5] | mortality at 200 ppm [6] | mortality at 200 ppm [7]

CCC(C#N)(CC)Oc1cnc(-c2nc3cc(C(F)(F)F)ncc3n2C)c(S(=O)(=O)CC)c1 [Compound P44, 2-ethyl-2-[[5-ethylsulfonyl-6-[3-methyl-6-(trifluoromethyl)imidazo[4,5-c]pyridin-2-yl]-3-pyridyl]oxy]butanenitrile]
≥ 80%: percent effect (mortality or growth inhibition) at 200 ppm [1] | mortality at 200 ppm [7]

CCSc1cc(OC(C)(C)C)cnc1-c1nc2cc(C(F)(F)F)ncc2n1C [Compound P3, 2-(5-tert-butoxy-3-ethylsulfanyl-2-pyridyl)-3-methyl-6-(trifluoromethyl)imidazo[4,5-c]pyridine]
≥ 80%: percent effect (mortality or growth inhibition) at 200 ppm [1] | percent effect (mortality or growth inhibition) at 200 ppm [3] | mortality at 200 ppm [4] | mortality at 200 ppm [6] | mortality at 200 ppm [7]

CCS(=O)(=O)c1cc(OCCCS(C)(=O)=O)cnc1-c1nc2cc(C(F)(F)F)ncc2n1C [Compound P52, 2-[3-ethylsulfonyl-5-(3-methylsulfonylpropoxy)-2-pyridyl]-3-methyl-6-(trifluoromethyl)imidazo[4,5-c]pyridine]
≥ 80%: percent effect (mortality or growth inhibition) at 200 ppm [1] | mortality at 24 ppm [2] | mortality at 200 ppm [4] | mortality at 200 ppm [7]

CCS(=O)(=O)c1cc(O[C@H]2C[C@@H](C#N)C2)cnc1-c1nc2cc(C(F)(F)F)ncc2n1C [Compound P46, 3-[[5-ethylsulfonyl-6-[3-methyl-6-(trifluoromethyl)imidazo[4,5-c]pyridin-2-yl]-3-pyridyl]oxy]cyclobutanecarbonitrile]
≥ 80%: percent effect (mortality or growth inhibition) at 200 ppm [1] | mortality at 24 ppm [2] | percent effect (mortality or growth inhibition) at 200 ppm [3] | mortality at 200 ppm [4] | mortality at 200 ppm [6] | mortality at 200 ppm [7]

CCS(=O)(=O)c1cc(OCCCSC)cnc1-c1nc2cc(C(F)(F)F)ncc2n1C [Compound P56, 2-[3-ethylsulfonyl-5-(3-methylsulfanylpropoxy)-2-pyridyl]-3-methyl-6-(trifluoromethyl)imidazo[4,5-c]pyridine]
≥ 80%: percent effect (mortality or growth inhibition) at 200 ppm [1] | mortality at 24 ppm [2] | mortality at 200 ppm [4] | mortality at 200 ppm [6] | mortality at 200 ppm [7]

CCS(=O)(=O)c1cc(OCCF)cnc1-c1nc2cc(C(F)(F)F)ncc2n1C [Compound P31, 2-[3-ethylsulfonyl-5-(2-fluoroethoxy)-2-pyridyl]-3-methyl-6-(trifluoromethyl)imidazo[4,5-c]pyridine]
≥ 80%: percent effect (mortality or growth inhibition) at 200 ppm [1] | mortality at 24 ppm [2] | percent effect (mortality or growth inhibition) at 200 ppm [3] | mortality at 200 ppm [4] | mortality at 200 ppm [5] | mortality at 200 ppm [6]

CCS(=O)(=O)c1cc(OCOC)cnc1-c1nc2cc(C(F)(F)F)ncc2n1C [Compound P68, 2-[3-ethylsulfonyl-5-(methoxymethoxy)-2-pyridyl]-3-methyl-6-(trifluoromethyl)imidazo[4,5-c]pyridine]
≥ 80%: percent effect (mortality or growth inhibition) at 200 ppm [1] | mortality at 24 ppm [2] | percent effect (mortality or growth inhibition) at 200 ppm [3] | mortality at 200 ppm [4] | mortality at 200 ppm [5] | mortality at 200 ppm [6]

CCS(=O)(=O)c1cc(OC(C)(C)CSC)cnc1-c1nc2cc(C(F)(F)F)ncc2n1C [Compound P50, 2-[5-(1,1-dimethyl-2-methylsulfanyl-ethoxy)-3-ethylsulfonyl-2-pyridyl]-3-methyl-6-(trifluoromethyl)imidazo[4,5-c]pyridine]
≥ 80%: percent effect (mortality or growth inhibition) at 200 ppm [1] | mortality at 24 ppm [2] | percent effect (mortality or growth inhibition) at 200 ppm [3] | mortality at 200 ppm [4] | mortality at 200 ppm [6] | mortality at 200 ppm [7]

CCS(=O)(=O)c1cc(OCS(C)(=O)=O)ccc1-c1nc2cc(C(F)(F)F)ncc2n1C [Compound P105, 2-[2-ethylsulfonyl-4-(methylsulfonylmethoxy)phenyl]-3-methyl-6-(trifluoromethyl)imidazo[4,5-c]pyridine]
≥ 80%: percent effect (mortality or growth inhibition) at 200 ppm [1] | mortality at 24 ppm [2] | mortality at 200 ppm [4] | mortality at 200 ppm [6] | mortality at 200 ppm [7]

CCS(=O)(=O)c1cc(OC(C)(C)C(N)=O)cnc1-c1nc2cc(C(F)(F)F)ncc2n1C [Compound P89, 2-[[5-ethylsulfonyl-6-[3-methyl-6-(trifluoromethyl)imidazo[4,5-c]pyridin-2-yl]-3-pyridyl]oxy]-2-methyl-propanamide]
≥ 80%: percent effect (mortality or growth inhibition) at 200 ppm [1] | mortality at 24 ppm [2] | percent effect (mortality or growth inhibition) at 200 ppm [3] | mortality at 200 ppm [4] | mortality at 200 ppm [6] | mortality at 200 ppm [7]

CCS(=O)(=O)c1cc(OC(C)C)cnc1-c1nc2cc(SC(F)F)ncc2n1C [Compound P86, 6-(difluoromethylsulfanyl)-2-(3-ethylsulfonyl-5-isopropoxy-2-pyridyl)-3-methyl-imidazo[4,5-c]pyridine]
≥ 80%: percent effect (mortality or growth inhibition) at 200 ppm [1] | mortality at 24 ppm [2] | percent effect (mortality or growth inhibition) at 200 ppm [3] | mortality at 200 ppm [4] | mortality at 200 ppm [5] | mortality at 200 ppm [6]

CCS(=O)(=O)c1cc(OCS(C)(=O)=O)cnc1-c1nc2cc(C(F)(F)F)ncc2n1C [Compound P9, 2-[3-ethylsulfonyl-5-(methylsulfonylmethoxy)-2-pyridyl]-3-methyl-6-(trifluoromethyl)imidazo[4,5-c]pyridine]
≥ 80%: percent effect (mortality or growth inhibition) at 200 ppm [1] | mortality at 24 ppm [2] | mortality at 200 ppm [4] | mortality at 200 ppm [6] | mortality at 200 ppm [7]

CCS(=O)(=O)c1cc(OCSC)ccc1-c1nc2cc(C(F)(F)F)ncc2n1C [Compound P106, 2-[2-ethylsulfonyl-4-(methylsulfanylmethoxy)phenyl]-3-methyl-6-(trifluoromethyl)imidazo[4,5-c]pyridine]
≥ 80%: percent effect (mortality or growth inhibition) at 200 ppm [1] | mortality at 24 ppm [2] | mortality at 200 ppm [4] | mortality at 200 ppm [6] | mortality at 200 ppm [7]

CCS(=O)(=O)c1cc(OCC(C)(C)C)cnc1-c1nc2cc(C(F)(F)F)ncc2n1C [Compound P26, 2-[5-(2,2-dimethylpropoxy)-3-ethylsulfonyl-2-pyridyl]-3-methyl-6-(trifluoromethyl)imidazo[4,5-c]pyridine]
≥ 80%: percent effect (mortality or growth inhibition) at 200 ppm [3] | mortality at 200 ppm [4] | mortality at 200 ppm [5] | mortality at 200 ppm [6] | mortality at 200 ppm [7]
